Read-outs that look alike come from different tables or passages of the source. Marks after values point to notes of the source that are not given here.
Experiments:
[1] = test system: A2780 ovarian cancer cells; test: MTT cytotoxicity assay in A2780 (cisplatin sensitive) ovarian cancer cells; type: cell-based, human
Procedure: (§1) Cells were exposed to increasing concentrations of the complexes (0.01–100 μM) for 24 and/or 48 h, at 37 °C. The IC50 values were calculated from dose–response curves using the colorimetric MTT assay. […] Most complexes presented a similar cytotoxicity profile compared to Auranofin, but higher activity compared to Cisplatin, and, most importantly, were active in the Cisplatin-resistant OVCAR8 cells (Table 2).
(§2) The cytotoxic activity of the complexes was evaluated in the A2780 (cisplatin sensitive) (Sigma-Aldrich) and OVCAR8 (cisplatin resistant) (ATCC) ovarian cancer cells. Cells were grown in RPMI-1640 medium (Gibco, Thermo Fisher) supplemented with 10% fetal bovine serum (FBS) and were maintained at 37 °C in a humidified atmosphere with 5% CO2. The complexes were initially dissolved in DMSO and then in culture medium to prepare serial dilutions in the range 10^−9–10^−4 M. After 24 and/or 48 h incubation the cellular viability was measured by the colorimetric MTT assay, as previously described.

[2] = test system: OVCAR8 ovarian cancer cells; test: MTT cytotoxicity assay in OVCAR8 (cisplatin resistant) ovarian cancer cells; type: cell-based, human; details: 48 h incubation
Procedure: as §1, §2

[3] = test system: zebrafish (Danio rerio) embryos; test: Acute toxicity (mortality) in zebrafish embryo; type: in vivo; details: 72 hpf embryos, 0.1–10 μM, 48 h, in words
Source text: Toxicity is a major challenge for drug development and is the leading cause of drug failure. Consequently, the evaluation of the potential toxicity represents a critical step in the development of new drugs. In this context, the zebrafish embryo represents a notable in vivo vertebrate model for studying the toxic effects of chemical compounds due to the small size, robustness, multiple progenies from a single mating, chemical permeability, easiness of observation and maintenance under laboratory conditions. In addition, the close phylogeny of zebrafish and mammals, with highly conserved signaling pathways, makes this species increasingly used and ideal for performing toxicological studies. Therefore, we evaluated the complexes acute toxicity by measuring mortality of 72 h post-fertilization (hpf) zebrafish embryos when incubated with increasing concentrations of the Au(III) complexes for 48 h.
To test the toxicological effect of the gold (III) complexes, zebrafish (Danio rerio) embryos at developmental stage of 72 h post-fertilization (hpf) were exposed to different concentrations of the target complexes and mortality was assessed for 48 h of treatment. […]

Huh7 cells = test: Cell viability (cell confluency, Alamar Blue) of P. berghei-infected Huh7 cells; type: cell-based; details: 5 µM, in words
Procedure: (§3) The in vitro liver stage activity of gold complexes was assessed against P. berghei-infected Huh7 cells, as previously described. Briefly, Huh7 cells were cultured in RPMI-1640 medium supplemented with 10% (v/v) fetal bovine serum, 1% (v/v) penicillin/streptomycin, 1% (v/v) glutamine, 1% (v/v) non-essential amino acids and 10 mM HEPES. On the day prior to infection, Huh7 cells were seeded in 96-well plates at a density of approximately 3.1 × 10^4 cell/cm^2 and incubated at 37 °C, 5% CO2. Stock solutions of the complexes were initially prepared in DMSO and serially diluted in infection medium, i.e., culture medium supplemented with gentamicin (50 µg/mL) and fungizone (0.8 µg/mL), to obtain the test concentrations. As a control, DMSO was diluted in infection medium to a percentage that equals that of the highest compound concentrations tested. These dilutions were added to the cells in triplicates and incubated for 1 h at 37 °C, 5% CO2, after which 1 × 10^4 luciferase-expressing P. berghei sporozoites were added to each well. Plates were centrifuged at 1800× g for 5 min at room temperature and incubated for the duration of the assay. At 46 h post-infection (hpi), the impact of each compound concentration on cell viability was assessed by the Alamar Blue (Invitrogen, Buckinghamshire, UK) assay, according to the manufacturer’s recommendations. Infection was next assessed by bioluminescence, employing the Firefly Luciferase Assay Kit 2.0 (Biotium, Fremont, CA, USA), according to the manufacturer’s recommendations. For IC50 determination, nonlinear regression analysis was employed to fit the normalized results of the dose–response curves, using GraphPad Prism 8 (GraphPad software, La Jolla, CA, USA).

S. aureus Newman = test: MIC determination, S. aureus; type: cell-based, Staphylococcus aureus; details: MH broth, 22 h, 37 °C
Source text: (§4) The bacterial strains Escherichia coli ATCC25922 and Staphylococcus aureus Newman were used in this work and maintained in Lennox Broth (LB) solid medium, composed of 10 g/L tryptone, 5 g/L yeast extract, 5 g/L NaCl and 20 g/L agar. The fungal strains Candida albicans SC5134 and C. glabrata CBS138 were used in this work and maintained in YPD solid medium, composed of 20 g/L glucose, 20 g/L peptone, 10 g/L yeast extract and 15 g/L agar. The strains were isolated from human infections.
(§5) The antimicrobial activity of the complexes towards the bacterial and fungal strains was assessed by the determination of the Minimal Inhibitory Concentration (MIC) of each complex towards the indicated microbial strains, based on standard methods, and as previously described. […] Serial 1:2 dilutions of stock solutions were prepared for each complex in Mueller–Hinton (MH) broth (Fluka Analytical) or RPMI-1640 medium (Sigma) supplemented with 20 g/L glucose and buffered with 0.165 M morpholinepropanesulphonic acid (RPMIG) to pH 7.0. Solutions prepared with MH were used for testing bacteria, while those prepared with RPMIG were used for testing fungi. For antibacterial activity assays, the final concentrations ranged from 250 to 0.24 μg/mL (when stock solution final concentration was 10 mg/mL), 125 μg/mL to 0.12 μg/mL (when stock solution final concentration was 5 mg/mL) and 62.5 to 0.06 μg/mL (when stock solution final concentration was 2.5 mg/mL). For antifungal assays, the final concentrations ranged from 125 μg/mL to 0.12 μg/mL (when stock solution final concentration was 10 mg/mL), 62.5 to 0.06 μg/mL (when stock solution final concentration was 5 mg/mL) and 31.25 to 0.03 μg/mL (when stock solution final concentration was 2.5 mg/mL). Then, 100 μL aliquots of adequately diluted bacterial suspensions of S. aureus Newman or E. coli ATCC 25922 were mixed with the MH serially diluted complexes aliquots to obtain 5 × 10^5 CFU/mL. In the case of fungi, cultures were diluted to obtain a final optical density of 0.025, measured at 530 nm (OD530). Bacterial suspensions were prepared from cultures grown for 5 h in MH broth at 37 °C and 250 rev·min^−1 and adequately diluted with fresh MH medium, while fungal suspensions were prepared from overnight cultures grown in YPD broth at 30 °C and 250 rev.min^−1 and diluted in buffered RPMIG. After 22 h of incubation at 37 °C (bacteria) or 24 h at 35 °C (fungi), the wells’ content was resuspended by pipetting and the OD640 (bacteria) or OD530 (fungi) were measured in a SPECTROstar Nano microplate reader (BMG Labtech).
(§6) At least three independent experiments were performed in duplicate for each complex under study. […] Positive (no complex) and negative controls (no inoculum) were performed for each experiment. The effect of 5% (V/V) DMSO on microbial growth was also assessed.

E. coli ATCC25922 = test: MIC determination, E. coli; type: cell-based, Escherichia coli; details: MH broth, 22 h, 37 °C
Source text: as §4, §5, §6

C. albicans SC5134 = test: MIC determination, C. albicans; type: cell-based, Candida albicans; details: RPMIG, 24 h, 35 °C
Source text: as §4, §5, §6

C. glabrata CBS138 = test: MIC determination, C. glabrata; type: cell-based, Candida glabrata; details: RPMIG, 24 h, 35 °C
Source text: as §4, §5, §6

P. berghei hepatic stage = test: In vitro activity against the hepatic stage of P. berghei infection (luciferase, Huh7 cells); type: cell-based, Plasmodium berghei; details: for IC50: hepatic stage, Huh7 cells, 46 hpi
Procedure: as §3

[4] = 24 h incubation, read-out: IC50 A2780, 24 h
[5] = 48 h incubation, read-out: IC50 A2780, 48 h

SMILES | IC50 [1, 4] [nM] | IC50 [1, 5] [nM] | IC50 [2] [nM] | toxicity in zebrafish embryo [3] | toxicity seen as lower cell confluency (Huh7 cells) | MIC S. aureus Newman (S. aureus Newman) [µg/mL] | MIC E. coli ATCC25922 (E. coli ATCC25922) [µg/mL] | MIC C. albicans SC5134 (C. albicans SC5134) | MIC C. glabrata CBS138 (C. glabrata CBS138) [µg/mL] | activity against hepatic stage of P. berghei (positive control) (P. berghei hepatic stage; in words) | IC50 (P. berghei hepatic stage) [nM]
CCn1c2c(sc1=O)[S][Au-]1([S]c3sc(=O)n(CC)c3[S]1)[S]2.c1ccc([P+](c2ccccc2)(c2ccccc2)c2ccccc2)cc1 [[P][AuSEt(=O)]] | 860 ± 110 | 310 ± 100 | 1160 ± 210 | more toxic than [P][AuSEt(=S)] | some degree of toxicity | >125 | >125 | >62.5 µg/mL | >62.5 |  | 
O=C1C(O)=C([C@H]2CC[C@H](c3ccc(Cl)cc3)CC2)C(=O)c2ccccc21 [Atovaquone, reference compound] |  |  |  |  |  |  |  |  |  | nanomolar-ranged activity | 
CCN1C(=C(C#N)C#N)SC2=C1[S][Au-]1([S]2)[S]C2=C([S]1)N(CC)C(=C(C#N)C#N)S2.CC[N+](CC)(CC)CC [[N][AuSEt(=C(CN)2)]] | 1320 ± 200 | 170 | 1480 ± 410 | more toxic than [N][AuSEt(=S)] | some degree of toxicity | >125 | >125 | >62.5 µg/mL | >62.5 |  | 
CCn1c2c(sc1=[Se])[Se][Au-]1([Se]c3sc(=[Se])n(CC)c3[Se]1)[Se]2.c1ccc([P+](c2ccccc2)(c2ccccc2)c2ccccc2)cc1 [[P][AuSeEt(=Se)]] | 3960 ± 2210 | 640 ± 190 | 2420 ± 1520 |  |  | >125 | >125 | >62.5 µg/mL | >62.5 |  | 518 ± 246
CC[N+](CC)(CC)CC.Cn1c2c(sc1=S)[S][Au-]1([S]c3sc(=S)n(C)c3[S]1)[S]2 [[N][AuSMe(=S)]] | 1630 ± 400 | 110 | 2440 ± 780 |  | some degree of toxicity | 4.4 ± 0.2 | >250 | >62.5 *** µg/mL | 2.9 ± 0.9 |  | 429 ± 39.6
CCCn1c2c(sc1=[Se])[S][Au-]1([S]c3sc(=[Se])n(CCC)c3[S]1)[S]2.c1ccc([P+](c2ccccc2)(c2ccccc2)c2ccccc2)cc1 [[P][AuSPr(=Se)]] | 620 ± 190 | 550 ± 410 | 800 ± 180 |  | some degree of toxicity | >125 | >125 | 62.5 µg/mL | >62.5 |  | 643.9 ± 1.34
CC(C)n1c2c(sc1=S)[Se][Au-]1([Se]c3sc(=S)n(C(C)C)c3[Se]1)[Se]2.CC[N+](CC)(CC)CC [[N][AuSeiPr(=S)]] | 30300 ± 3390 | 8270 ± 1120 | 8760 ± 690 |  |  | 1.5 ± 0.1 | >250 | >125 µg/mL | 2.1 ± 0.1 |  | 
CCCn1c2c(sc1=S)[Se][Au-]1([Se]c3sc(=S)n(CCC)c3[Se]1)[Se]2.c1ccc([P+](c2ccccc2)(c2ccccc2)c2ccccc2)cc1 [[P][AuSePr(=S)]] | 910 ± 400 | 290 ± 100 | 1570 ± 430 |  |  | >250 | >250 | >125 µg/mL | >125 |  | 544 ± 19.4

From PMC9266914, “Broad Spectrum Functional Activity of Structurally Related Monoanionic Au(III) Bis(Dithiolene) Complexes” (International Journal of Molecular Sciences, 2022)
